One data set relates to Kunming mice. In words: safety in Kunming mice, single intragastric dose, 14 days observation. In kind it is in vivo. Particulars: 50-2000 mg/kg; for change in body weight (relative body weight Day 14/Day 1): 14 days after administration; for death / signs of intoxication: 14 days observation. The procedure:
In the example, the compounds 16-4 and 17-15 were tested for their safety in Kunming mice.
Kunming mice (with a body weight of 18-22 g) were randomly divided into control group, 16-4 administration group, and 17-15 administration group, with 4 mice for each group, administered at a dose of 0 mg/kg, 50 mg/kg, 500 mg/kg, 1000 mg/kg and 2000 mg/kg. At the first day of experiment, drugs were intragastrically administered to 16-4 administration group and 17-15 administration group, and normal saline was administered to control group. The body weight and physical conditions of mice (for example, being short of breath or not, having bleeding spots in skin or not, etc.) and whether mice died or not were recorded every day. After observation for 14 days, the mice were sacrificed.

The test system of data set [1] is TGF-β1-induced LX2 cells. In words: real-time PCR assay in TGF-β1-induced LX2 cells. In kind it is cell-based, human. Particulars: TGF-β1 (2 ng/ml)-induced LX2 cells, 1, 5 and 10 μmmol/L, 24 h. The procedure:
(§1) In DMEM (Gibco) medium containing 10% fetal bovine serum, LX2 cells were cultured at 37° C., 5% CO2. The cells were spread on a 6-well plate at 1×10^5 cells per well. After culture for 24 h, the original medium was discarded, the cells were washed with PBS once, and DMEM (Gibco) medium without 10% fetal bovine serum was added. […] After further culture for 24 h, the samples were taken.
In accordance with the TRizol method, the total RNA in LX2 cells were extracted, and in accordance with the operations described in the instruction of Roche Transcriptor First Strand cDNA Synthesis Kit, the total RNA of LX2 was reverse transcribed into cDNA. The cDNA obtained, sterile water, Roche FastStart Universal Probe Master (Rox) and ABI TaqMan probes (COL1A1, TGF-β1, MMP2) were used to prepare a 20 μL reaction system, which was analyzed by ABI 7500 Fast Real-Time PCR System.
(In general: In qPCR the cycle at which signal appears reflects the starting amount.)

Data set [2] has as its system TGF-β1-induced LX2 cells. As to the kind of experiment: Western blot assay in TGF-β1-induced LX2 cells. Format: cell-based, human. Conditions: TGF-β1 (2 ng/ml)-induced LX2 cells, 1, 5 and 10 μmmol/L, 24 h. The procedure: as §1
Proteins in LX2 cells were extracted with RAPI lysis solution (containing 1% PMSF), and the protein concentration was determined by BCA method. The sample was loaded at 20 μg/20 μL, subjected to polyacrylamide gel electrophoresis, transferred to a membrane, blocked with 5% skim milk, incubated with a primary antibody, washed with PBST, incubated with a secondary antibody, and imaged with ChemiImager 5500 imaging system.
A general note: A western blot detects proteins with antibodies after separation by electrophoresis.

For another data set, the system named is COL1A1 promoter. In words: dual-luciferase reporter assay of COL1A1 promoter activity in LX2 cells. Format: cell-based, human. Conditions: TGF-β1 2 ng/ml, 1, 5 and 10 μmol/L, 24 h. Here is the method:
At 37° C., 5% CO2, human hepatic stellate cells LX2 were cultured in DMEM medium containing 10% fetal bovine serum (Gibco). After the cells reached a confluence of about 95%, the cells were spread onto a 96-well plate at 2×10^4 cells per well. After the cells reached a confluence of about 90%, the cells were subjected to serum-free culture in DMEM medium (Gibco) containing no fetal bovine serum for 24 h. […] The cells were further cultured for 24 h. In accordance with the operations described in the instruction of Dual-Glo™ Luciferase Assay System, the medium was discarded, and the cells were washed with PBS once. Cells were lysed by the addition of 1×PLB (20 μL/well) (within 15 min), luciferase substrate (50 μL/well) was added for assay, and a stop solution (50 μL/well) was added for assay.
Background: A reporter such as luciferase makes a cellular process visible.

Data set [3] relates to BDL model rat. As to the kind of experiment: Western blot of proteins associated with liver fibrosis in liver tissue of BDL rats. Format: in vivo. Conditions: 100 mg/kg i.p., 14 days. Here is the method: (§2) SD male rats (with a body weight of 180-200 g) were randomly divided into sham operation group, BDL model group and 16-4 administration group, wherein sham operation group included 6 rats, BDL model group included 8 rats, and 16-4 administration group included 6 rats. Animals were fasted for 12 hours before surgery. After anesthetization with isoflurane, the abdomen of rat was opened under aseptic conditions, the liver was lifted, the duodenum was pulled aside, and 2-3 cm common bile duct was separate. Ligations were performed twice with silk thread No. 000 at the place proximal to duodenum and the place proximal to porta hepatis, respectively. The common bile duct was cut off at the middle of the two ligation places. After the liver was put back, the cut was sutured. In sham operation group, the abdomen was just opened, and then sutured. After recovery from anesthesia, the animals were subjected to normal diet, with free access to water. 2 days after surgery, the compound 16-4 (100 mg/kg) was intraperitoneally injected to 16-4 administration group, and normal saline was intraperitoneally injected to sham operation group and BDL model group, once a day. […]
Liver tissues (80-100 mg) were taken from the rats of each group in Example 6, and 1 mL RAPI lysis solution (containing 1% PMSF) was added. […] The supernatant was taken, and the protein concentration was determined by BCA method. […]

Data set [4] relates to BDL model rat. In words: hydroxyproline content in liver tissue of BDL rats. In kind it is in vivo. Conditions: 100 mg/kg i.p., 14 days. Here is the method:
as §2, with “water.” for “water. 2 days after surgery, the compound 16-4 (100 mg/kg) was intraperitoneally injected to 16-4 administration group, and normal saline was intraperitoneally injected to sham operation group and BDL model group, once a day.”
(2) Hydroxyproline is specific to collagen fibrils, and the content of hydroxyproline can reflect the extent of liver fibrosis. Liver tissue samples (80-100 mg) were taken from the rats of each group in Example 6, and in accordance with the instruction of Hydroxyproline Assay Kit (purchased from Nanjing Jiancheng Bioengineering Institute), the content of hydroxyproline in the liver tissues was determined.

Data set [5] deals with BDL model rat. In words: serum liver function in BDL model rat. Format: in vivo. Particulars: 100 mg/kg i.p. once a day for 14 days. Here is the method: (§3) SD male rats (with a body weight of 180-200 g) were randomly divided into sham operation group, BDL model group and 16-4 administration group, wherein sham operation group included 6 rats, BDL model group included 8 rats, and 16-4 administration group included 6 rats. Animals were fasted for 12 hours before surgery. After anesthetization with isoflurane, the abdomen of rat was opened under aseptic conditions, the liver was lifted, the duodenum was pulled aside, and 2-3 cm common bile duct was separate. Ligations were performed twice with silk thread No. 000 at the place proximal to duodenum and the place proximal to porta hepatis, respectively. The common bile duct was cut off at the middle of the two ligation places. After the liver was put back, the cut was sutured. In sham operation group, the abdomen was just opened, and then sutured. After recovery from anesthesia, the animals were subjected to normal diet, with free access to water. 2 days after surgery, the compound 16-4 (100 mg/kg) was intraperitoneally injected to 16-4 administration group, and normal saline was intraperitoneally injected to sham operation group and BDL model group, once a day. After administration for 14 days, samples such as urine, blood, bile, liver, kidney and ileum were collected from the animals after being fasted for 12 hours.
Blood samples were taken from rats of each group in Example 6, and the rats were fasted for 12 h before taking samples. The rats were anesthetized with 10% chloral hydrate, and blood was collected via aorta ventralis, on standing at room temperature for 1 h, and centrifuged at 3000 rpm for 5 min. The serum was tested for serum biochemical indexes.

Data set [6] relates to BDL model rat. In words: Masson staining of liver tissue of BDL rats. In kind it is in vivo. Conditions: 100 mg/kg i.p., 14 days. The procedure:
as §3, with “hours. […]” for “hours.”

Data set [7] relates to BDL model rat. As to the kind of experiment: real-time PCR of genes associated with liver fibrosis in liver tissue of BDL rats. In kind it is in vivo. Particulars: 100 mg/kg i.p., 14 days. Here is the method: as §2, with “water.” for “water. 2 days after surgery, the compound 16-4 (100 mg/kg) was intraperitoneally injected to 16-4 administration group, and normal saline was intraperitoneally injected to sham operation group and BDL model group, once a day.”
Liver tissues (80-100 mg) were taken from the rats of each group in Example 6, and 1 mL TRizol was added. […] The cDNA obtained, sterile water, Roche FastStart Universal Probe Master (Rox) and ABI TaqMan probes were used to prepare a 20 μL reaction system, which was analyzed by ABI 7500 Fast Real-Time PCR System.

The subject of data set [8] is BDL model rat. In words: HE staining of liver tissue of BDL rats. In kind it is in vivo. Particulars: 100 mg/kg i.p., 14 days. The procedure: as §3
The liver tissue samples were taken from rats of each group in Example 6, and the rats were fasted for 12 hours before taking samples. The rats were anesthetized with 10% chloral hydrate and the liver tissue was taken. The hepatic lobar tissue blocks were cut off and fixed in 4% neutral formaldehyde solution. By carrying out the steps such as dehydration, paraffin embedding, slicing and baking, paraffin slices were made. Hematoxylin-eosin (HE) staining solution was used for staining, and changes in pathological structure of rat liver tissue were observed.

For data set [9], the system named is ANIT-induced liver injury. In words: alpha-naphthylisothiocyanate (ANIT)-induced liver injury model, HE staining. Format: in vivo, mouse. Particulars: 400 mg/kg intragastric, ANIT 75 mg/kg, 48 h after induction. Here is the method:
After further administration for 2 days (i.e. after induction with ANIT for 48 h), liver tissues were harvested, and subjected to pathological section and HE staining.

As for `O=C(Nc1ccc(Cl)c(Cl)c1)c1ccccc1NS(=O)(=O)c1cccc(OC(F)(F)F)c1` [17-15, N-(3,4-dichlorophenyl)-2-(3-trifluoromethoxybenzenesulfonamido) benzamide], in the data set with Kunming mice, the “change in body weight (relative body weight Day 14/Day 1)” value was “no significant decrease in body weight”, the death result is given as “no death occurred” and the signs of intoxication result is “no signs of intoxication were observed”. Moreover, in the data set with TGF-β1-induced LX2 cells [1], the “expression levels of mRNA of COL1A1, TGF-β1 and MMP2” value was “significantly inhibit”. For the same compound, in the data set on TGF-β1-induced LX2 cells [2], the “expression of COL1A1, TGF-β1, MMP2 and α-SMA protein” value (“expression of COL1A1, TGF-β1” below) was “significantly inhibit”. For the same compound, in the data set with COL1A1 promoter, the “activity of COL1A1 promoter (relative luciferase activity)” value is “inhibit the activity of COL1A1 promoter in a dose-dependent manner”.

`O=C(Nc1cc(Cl)c(Cl)c(Cl)c1)c1ccccc1NS(=O)(=O)c1cccc([N+](=O)[O-])c1` [16-4, N-(3,4,5-trichlorophenyl)-2-(3-nitrobenzenesulfonamido) benzamide]: the “expression of COL1A1, TGF-β1” value in the data set with BDL model rat [3] is recorded as “significantly inhibit”. Besides, in the data set with Kunming mice, the “change in body weight (relative body weight Day 14/Day 1)” value is recorded as “no significant decrease in body weight”, the death entry was “no death occurred” and the signs of intoxication entry is given as “no signs of intoxication were observed”. Also, the “content of hydroxyproline in rat liver tissues” value in the data set on BDL model rat [4] is listed as “significantly reduce”. In the data set on BDL model rat [5], the “liver function of BDL rats” value is on record as “could improve the liver function”. In the data set with BDL model rat [5] (serum, BDL rat, n = 6), the “alanine aminotransferase ALT” value is recorded as 68.20 ± 11.86 U/L, the “alkaline phosphatase ALP” value came out at 383.60 ± 56.45 U/L and the “γ-glutamyltransferase γ-GGT” value amounted to 27.40 ± 10.26 U/L. In addition, in the data set on TGF-β1-induced LX2 cells [1], the “expression levels of mRNA of COL1A1, TGF-β1 and MMP2” value was “significantly inhibit”. Moreover, the “fibrosis of liver tissues (Masson staining)” value in the data set on BDL model rat [6] is “significantly inhibit the fibrosis of liver tissues”. Further, the “expression of COL1A1, TGF-β1” value with TGF-β1-induced LX2 cells [2] is reported as “significantly inhibit”. Further, the “activity of COL1A1 promoter (relative luciferase activity)” value with COL1A1 promoter was “inhibit the activity of COL1A1 promoter in a dose-dependent manner”. Moreover, the “expression of genes associated with liver fibrosis (COL1A1, TGF-β1, MMP2, α-SMA (ACTA2), TIMP1, TIMP2 and SPP1)” value in the data set on BDL model rat [7] was “significantly reduce”. For the same compound, in the data set with BDL model rat [8], the bile duct proliferation result is recorded as “significantly inhibited bile duct proliferation”, the “pathological structure of the liver tissues” value was “significantly improve” and the tissue necrosis entry was “significantly reduced tissue necrosis”. Moreover, the “liver injury (HE staining of liver tissue slices) compared to ANIT-induced group” value in [9] is recorded as “had the liver injury improved”.

Values taken from patent US10933038B2, “Use of (benzenesulfonamido) benzamide compounds for inhibiting liver fibrosis” (Hebei Medfaith Pharmaceutical Technology Co., Ltd., priority 2015, dated 2021).
